We go through 35 cell lines from the supplement of paper PMC10307832.

Compound in this assay: O=C(O)c1ccc2c(c1)nc(Nc1cccc(Cl)c1)c1ccncc12 [Silmitasertib] + Cc1nc(NC(=O)N2CCC[C@H]2C(N)=O)sc1-c1ccnc(C(C)(C)C(F)(F)F)c1 [Alpelisib] (partner 2 µM)
As to the kind of experiment: relative viability (nuclei count vs DMSO), 5 days (fraction); higher = more cells survive. In a few lines:
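Lung cancer cell lines were pin-tool dosed in 1536-well plates on the day after seeding, with either a lone drug or a fixed anchor-drug dose plus five library-drug doses (not always all listed) in √10 steps. Nuclei were counted on 4× images after 5 days. Relative viability is the ratio of treated-well to vehicle-well nuclei counts, with each value a median of duplicate plates.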

EKVX: the relative viability is 1.01 (first compound 0.04 µM), 0.628 (first compound 0.4 µM), 0.739 (first compound 1.265 µM) and 0.656 (first compound 4 µM).

As for HARA, the relative viability came to 1.08 (first compound 0.04 µM), 0.64 (first compound 0.4 µM), 0.565 (first compound 1.265 µM) and 0.545 (first compound 4 µM).

For EMC-BAC-2, the relative viability (first compound 0.04 µM) is 0.743, the relative viability (first compound 0.4 µM) was 0.627, the relative viability (first compound 1.265 µM) was 0.558 and the relative viability (first compound 4 µM) is 0.547.

Take PC-14: the relative viability (first compound 0.04 µM) was found to be 0.968, the relative viability (first compound 0.4 µM) is 0.942, the relative viability (first compound 1.265 µM) turned out to be 0.924 and the relative viability (first compound 4 µM) came to 0.939.

For NCI-H520, the relative viability is, setting by setting: (first compound 0.04 µM) 0.932; (first compound 0.4 µM) 1.01; (first compound 1.265 µM) 1.16; (first compound 4 µM) 0.832.

Consider NCI-H1755, for which the relative viability (first compound 0.04 µM) was found to be 0.981, the relative viability (first compound 0.4 µM) was 0.912, the relative viability (first compound 1.265 µM) amounted to 0.908 and the relative viability (first compound 4 µM) came to 0.987.

As for NCI-H2087, the relative viability by setting is: (first compound 0.04 µM) 1.08; (first compound 0.4 µM) 0.811; (first compound 1.265 µM) 0.76; (first compound 4 µM) 0.386.

For the cell line NCI-H2023, the relative viability (first compound 0.04 µM) is 0.684, the relative viability (first compound 0.4 µM) was determined as 0.522, the relative viability (first compound 1.265 µM) is 0.599 and the relative viability (first compound 4 µM) came to 0.399.

Consider CAL-12T, for which the relative viability runs as follows: (first compound 0.04 µM) 1.38; (first compound 0.4 µM) 1.21; (first compound 1.265 µM) 0.802; (first compound 4 µM) 0.551.

NCI-H2085: the relative viability reads like this: (first compound 0.04 µM) 1.02; (first compound 0.4 µM) 0.806; (first compound 1.265 µM) 0.81; (first compound 4 µM) 0.878.

For NCI-H650, the relative viability came out at 1.16 (first compound 0.04 µM), 0.648 (first compound 0.4 µM), 1.09 (first compound 1.265 µM) and 0.99 (first compound 4 µM).

On to LCLC-97TM1, for which the relative viability by setting is: (first compound 0.04 µM) 0.216; (first compound 1.265 µM) 0.165; (first compound 4 µM) 0.14.

Regarding NCI-H2126, the relative viability reads like this: (first compound 0.04 µM) 0.72; (first compound 0.4 µM) 0.667; (first compound 1.265 µM) 0.727; (first compound 4 µM) 0.704.

Turning to 201T, the relative viability was 0.908 (first compound 0.04 µM), 1 (first compound 0.4 µM), 1.01 (first compound 1.265 µM) and 1.13 (first compound 4 µM).

NCI-H1915: the relative viability is, setting by setting: (first compound 0.04 µM) 1.05; (first compound 1.265 µM) 1.14; (first compound 4 µM) 0.885.

Take BEN: the relative viability reads like this: (first compound 0.04 µM) 1.02; (first compound 0.4 µM) 0.783; (first compound 1.265 µM) 0.896; (first compound 4 µM) 0.956.

Consider NCI-H2347, for which the relative viability by setting is: (first compound 0.04 µM) 1.07; (first compound 0.4 µM) 0.854; (first compound 1.265 µM) 0.93; (first compound 4 µM) 0.904.

For the cell line H3255, the relative viability turned out to be 0.811 (first compound 0.04 µM), 0.786 (first compound 0.4 µM), 0.657 (first compound 1.265 µM) and 0.549 (first compound 4 µM).

Turning to NCI-H441, the relative viability turned out to be 0.746 (first compound 0.04 µM), 0.634 (first compound 1.265 µM) and 0.41 (first compound 4 µM).

Turning to NCI-H2228, the relative viability (first compound 0.04 µM) stood at 0.785, the relative viability (first compound 0.4 µM) is 0.821, the relative viability (first compound 1.265 µM) was determined as 0.821 and the relative viability (first compound 4 µM) stood at 0.808.

NCI-H1975: the relative viability runs as follows: (first compound 0.04 µM) 0.683; (first compound 0.4 µM) 0.532; (first compound 1.265 µM) 0.589; (first compound 4 µM) 0.468.

For the cell line NCI-H647, the relative viability runs as follows: (first compound 0.04 µM) 1.37; (first compound 0.4 µM) 1.09; (first compound 1.265 µM) 0.688; (first compound 4 µM) 0.465.

A-427: the relative viability runs as follows: (first compound 0.04 µM) 1.07; (first compound 1.265 µM) 1.28; (first compound 4 µM) 1.05.

Turning to LXF-289, the relative viability by setting is: (first compound 0.04 µM) 1.06; (first compound 1.265 µM) 1.09; (first compound 4 µM) 1.07.

As for NCI-H727, the relative viability amounted to 0.611 (first compound 0.04 µM), 0.506 (first compound 0.4 µM), 0.493 (first compound 1.265 µM) and 0.297 (first compound 4 µM).

Take NCI-H1437: the relative viability (first compound 0.04 µM) turned out to be 0.976, the relative viability (first compound 1.265 µM) came to 0.741 and the relative viability (first compound 4 µM) turned out to be 0.498.

RERF-LC-KJ: the relative viability reads like this: (first compound 0.04 µM) 0.929; (first compound 0.4 µM) 0.797; (first compound 1.265 µM) 0.66; (first compound 4 µM) 0.51.

Turning to NCI-H1792, the relative viability came to 0.671 (first compound 0.04 µM), 0.595 (first compound 0.4 µM), 0.683 (first compound 1.265 µM) and 0.727 (first compound 4 µM).

In the case of HCC-44, the relative viability amounted to 0.767 (first compound 0.04 µM), 0.761 (first compound 0.4 µM), 0.769 (first compound 1.265 µM) and 0.741 (first compound 4 µM).

For the cell line EPLC-272H, the relative viability came out at 1.04 (first compound 0.04 µM), 0.632 (first compound 1.265 µM) and 0.763 (first compound 4 µM).

Regarding IA-LM, the relative viability (first compound 0.04 µM) stood at 0.717, the relative viability (first compound 0.4 µM) came out at 0.901, the relative viability (first compound 1.265 µM) is 0.942 and the relative viability (first compound 4 µM) came out at 0.84.

As to NCI-H358, the relative viability by setting is: (first compound 0.04 µM) 0.916; (first compound 0.4 µM) 0.786; (first compound 1.265 µM) 0.65; (first compound 4 µM) 0.48.

As to NCI-H596, the relative viability runs as follows: (first compound 0.04 µM) 0.47; (first compound 0.4 µM) 0.429; (first compound 1.265 µM) 0.382; (first compound 4 µM) 0.444.

Regarding NCI-H322M, the relative viability by setting is: (first compound 0.04 µM) 0.763; (first compound 0.4 µM) 0.71; (first compound 1.265 µM) 0.559; (first compound 4 µM) 0.465.

As for NCI-H1563, the relative viability by setting is: (first compound 0.04 µM) 0.922; (first compound 0.4 µM) 0.734; (first compound 1.265 µM) 0.923; (first compound 4 µM) 0.92.
